The results in this text go back to patent publication US20020026052A1, “3-cyanoquinolines, 3-cyano-1,6-naphthyridines, and 3-cyano-1,7-naphthyridines as protein kinase inhibitors” (American Home Products Corporation, priority 2000, published 2002).

By melting point is commonly meant the temperature, or range, at which the solid turns liquid.

Values joined by “and” are separate entries in the source; they are usually repeats but may differ in a detail not shown here. Equal values may be shown once. A value given as a limit tells only on which side of the number the result lay.

In data set [1] the target is Rat2 fibroblasts stably transformed with v-Src/Hu c-Src fusion gene (Homo sapiens, UniProt P12931, cells depend on it, form not given). Kind of data set: Anchorage Independent Src-transformed Fibroblast Proliferation Assay. Type of data set: cell-based, Rat. The conditions noted are these: suspension growth, MTS reagent on Day 5; read-out: anch-indep src-tx fib IC50. How it is done: Anchorage Independent Src-transformed Fibroblast Proliferation Assay
Rat2 fibroblasts stably transformed with a plasmid containing a CMV promotor controlled v-Src/Hu c-Src fusion gene in which the catalytic domain of human c-Src was inserted in place of the v-Src catalytic domain in the v-Src gene are used for the measurement of src dependent suspension growth. […] Multiple entries for a given compound indicate that it was tested multiple times.
(In general: Formazan colour is commonly taken as a measure of viable cells.)

Rat2 fibroblasts stably transformed with v-Src/Hu c-Src fusion gene, sequence (P12931 whole entry, stated change not applied, the tested form may be a part): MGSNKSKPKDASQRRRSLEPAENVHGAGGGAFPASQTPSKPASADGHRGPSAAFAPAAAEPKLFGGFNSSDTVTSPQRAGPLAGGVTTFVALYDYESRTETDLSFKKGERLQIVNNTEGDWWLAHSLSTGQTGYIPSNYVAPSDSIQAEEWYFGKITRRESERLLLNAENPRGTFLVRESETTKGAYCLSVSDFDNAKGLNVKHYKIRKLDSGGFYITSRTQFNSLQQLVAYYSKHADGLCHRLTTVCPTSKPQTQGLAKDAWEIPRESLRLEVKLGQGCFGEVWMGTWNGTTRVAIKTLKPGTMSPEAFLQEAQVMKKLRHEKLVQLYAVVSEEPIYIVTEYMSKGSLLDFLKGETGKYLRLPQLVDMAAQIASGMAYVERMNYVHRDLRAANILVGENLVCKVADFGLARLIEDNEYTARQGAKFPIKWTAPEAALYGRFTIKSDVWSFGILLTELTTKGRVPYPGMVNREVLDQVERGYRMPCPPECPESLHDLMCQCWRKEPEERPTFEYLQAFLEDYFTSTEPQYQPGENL

`CCN1CCN(Cc2cc(-c3ccc4c(Nc5ccc(Cl)cc5Cl)c(C#N)cnc4c3)cs2)CC1` [Example 10, 4-(2,4-Dichloroanilino)-7-{5-[(4-ethyl-1-piperazinyl)methyl]-3-thienyl}-3-quinolinecarbonitrile] showed a melting point of 182 to 184 °C. Besides, the GI50 in data set [1] came out at 900 nM.

The molecule `N#Cc1cnc2cc(C#CCCCN3CCOCC3)ccc2c1Nc1ccc(Cl)cc1Cl` [Example 11, 4-(2,4-Dichloroanilino)-7-[5-(4-morpholinyl)-1-pentynyl]-3-quinolinecarbonitrile] had a melting point of 131 to 133 °C. Moreover, in data set [1], the GI50 was above 10000 nM.

`N#Cc1cnc2cc(-c3ccc(CN4CCOCC4)o3)ccc2c1Nc1ccc(Cl)cc1Cl` [Example 13, 4-(2,4-Dichloroanilino)-7-[5-(4-morpholinylmethyl)-2-furyl]-3-quinolinecarbonitrile] registered a melting point of 118 to 120 °C. Further, in data set [1], the GI50 is 1510 nM and 1590 nM.

The molecule `CN(C)CC#Cc1ccc2c(Nc3ccc(Cl)cc3Cl)c(C#N)cnc2c1` [Example 15, 4-(2,4-dichloroanilino)-7-[3-(dimethylamino)-1-propynyl]-3-quinolinecarbonitrile] showed a melting point of 144 to 145 °C. Further, the GI50 in data set [1] is above 10000 nM.

As for `N#Cc1cnc2cc(-c3cc(CN4CCOCC4)c(CN4CCOCC4)s3)ccc2c1Nc1ccc(Cl)cc1Cl` [Example 17], the melting point was in the range of 118 to 125 °C. Moreover, the GI50 in data set [1] was 310 nM.

As to `COc1cc(Nc2c(C#N)cnc3cc(-c4cc(CN5CCOCC5)c(CN5CCOCC5)s4)ccc23)c(Cl)cc1Cl` [Example 20, 7-[4,5-Bis(4-morpholinylmethyl)-2-thienyl]-4-(2,4-dichloro-5-methoxyanilino)-3-quinolinecarbonitrile], the melting point was in the range of 118 to 125 °C. In addition, the GI50 in data set [1] was 40 nM and 30 nM.

Take `COc1cc(Nc2c(C#N)cnc3cc(-c4ccc(CCCCN5CCOCC5)s4)ccc23)c(Cl)cc1Cl` [Example 22, 4-(2,4-Dichloro-5-methoxyanilino)-7-{5-[4-(4-morpholinyl)butyl]-2-thienyl}-3-quinolinecarbonitrile]: the melting point is 188 °C (dec.). Besides, the GI50 in data set [1] worked out at 600 nM.

Turning to `N#Cc1cnc2cc(-c3csc(CN4CCOCC4)c3)ccc2c1Nc1ccc(Cl)cc1Cl` [Example 25, 4-(2,4-Dichloroanilino)-7-[5-(4-morpholinylmethyl)-3-thienyl]-3-quinolinecarbonitrile], the melting point fell in the range of 203 to 205 °C. The GI50 in data set [1] is 1300 nM and 930 nM.

Molecule `COc1cc(Nc2c(C#N)cnc3cc(-c4csc(CN5CCOCC5)c4)c(OC)cc23)c(Cl)cc1Cl` [Example 36, 4-(2,4-Dichloro-5-methoxyanilino)-6-methoxy-7-[5-(4-morpholinylmethyl)-3-thienyl]-3-quinolinecarbonitrile] returned a melting point of 148 to 150 °C. Also, the GI50 in data set [1] was 160 nM and 200 nM.

For the molecule `COc1cc(Nc2c(C#N)cnc3cc(-c4ccc(CN5CCC[C@@H]5C(N)=O)o4)ccc23)c(Cl)cc1Cl` [Example 47, (2 R)-1-({5-[3-cyano-4-(2,4-dichloro-5-methoxyanilino)-7-quinolinyl]-2-furyl}methyl)-2-pyrrolidinecarboxamide], the melting point is 121 to 126 °C. Besides, in data set [1], the GI50 amounted to 1170 nM.

Regarding `COc1cc(Nc2c(C#N)cnc3cc(-c4ccc(C5OCCO5)s4)ccc23)c(Cl)cc1Cl` [Example 51, 4-(2,4-dichloro-5-methoxyanilino)-7-[5-(1,3-dioxolan-2-yl)-2-thienyl]-3-quinolinecarbonitrile], the melting point is 174 to 177 °C (dec.). Besides, the GI50 in data set [1] came out at 420 nM.

Regarding `COc1cc(Nc2c(C#N)cnc3cc(-c4ccc(CN5CCOCC5)o4)ccc23)c(Cl)cc1Cl` [Example 53, 4-(2,4-Dichloro-5-methoxyanilino)-7-[5-(4-morpholinylmethyl)-2-furyl]-3-quinolinecarbonitrile], the melting point lay within 182 to 183 °C. In addition, in data set [1], the GI50 came out at 250 nM.

Consider `COc1ccc(/C=C/c2ccc3c(Nc4cc(OC)c(Cl)cc4Cl)c(C#N)cnc3c2)cc1` [Example 54, 4-(2,4-Dichloro-5-methoxyanilino)-7-[(E)-2-(4-methoxyphenyl)ethenyl]-3-quinolinecarbonitrile], for which the melting point was in the range of 216 to 220 °C. The GI50 in data set [1] is above 10000 nM.

Regarding `COc1cc(Nc2c(C#N)cnc3cc(-c4ccc(CNCCS(=O)(=O)c5ccccc5)o4)ccc23)c(Cl)cc1Cl` [Example 58, 4-(2,4-Dichloro-5-methoxyanilino)-7-[5-({[2-(phenylsulfonyl)ethyl]amino}methyl)-2-furyl]-3-quinolinecarbonitrile], the melting point was 123 to 128 °C. In data set [1], the GI50 amounted to 5100 nM.

Regarding `COc1cc(Nc2c(C#N)cnc3cc(-c4cncn4CCN4CCOCC4)ccc23)c(Cl)cc1Cl` [Example 64, 4-(2,4-Dichloro-5-methoxyanilino)-7-{1-[2-(4-morpholinyl)ethyl]-lH-imidazol-5-yl}-3-quinolinecarbonitrile], the melting point was 150 °C (dec.). The GI50 in data set [1] was above 10000 nM.

As to `COc1cc(Nc2c(C#N)cnc3cc(-c4ccc(N5CCOCC5)cc4)ccc23)c(Cl)cc1Cl` [Example 67, 4-(2,4-Dichloro-5-methoxyanilino)-7-[4-(4-morpholinyl)phenyl]-3-quinolinecarbonitrile], the melting point lay within 235 to 237 °C. In data set [1], the GI50 was 110 nM.

As for `COc1cc(Nc2c(C#N)cnc3cc(-c4ccc(C=O)n4C)ccc23)c(Cl)cc1Cl` [Example 69, 4-(2,4-Dichloro-5-methoxyanilino)-7-(5-formyl-1-methyl-1H-pyrrol-2-yl)-3-quinolinecarbonitrile], the melting point was 200 °C (dec.). In addition, the GI50 in data set [1] is above 10000 nM.

Take `COc1cc(Nc2c(C#N)cnc3cc(-c4ccc(CN5CCOCC5)n4C)ccc23)c(Cl)cc1Cl` [Example 70, 4-(2,4-Dichloro-5-methoxyanilino)-7-[1-methyl-5-(4-morpholinylmethyl)-1H-pyrrol-2-yl]-3-quinolinecarbonitrile]: the melting point lay in the range of 208 to 210 °C. In addition, the GI50 in data set [1] worked out at 6000 nM.

As for `COc1cc(Nc2c(C#N)cnc3cc(-c4ccc(CN5CCN(C)CC5)n4C)ccc23)c(Cl)cc1Cl` [Example 71, 4-(2,4-Dichloro-5-methoxyanilino)-7-{1-methyl-5-[(4-methyl-1-piperazinyl)methyl]-1H-pyrrol-2-yl}-3-quinolinecarbonitrile], the melting point was 200 °C (dec.). Further, in data set [1], the GI50 was 6800 nM.

For `COc1cc(Nc2c(C#N)cnc3cc(-c4ccc(CNCCS(C)(=O)=O)n4C)ccc23)c(Cl)cc1Cl` [Example 73, 4-(2,4-dichloro-5-methoxyanilino)-7-[1-methyl-5-({[2-(methylsulfonyl)ethyl]amino}-methyl)-1H-pyrrol-2-yl]-3-quinolinecarbonitrile], the melting point was 160 to 164 °C. Moreover, the GI50 in data set [1] is above 10000 nM.

Take `COc1cc(Nc2c(C#N)cnc3cc(-c4ccc(CN5CCN(CCO)CC5)o4)ccc23)c(Cl)cc1Cl` [Example 75, 4-(2,4-Dichloro-5-methoxyanilino)-7-(5-{[4-(2-hydroxyethyl)-1-piperazinyl]methyl}-2-furyl)-3-quinolinecarbonitrile]: the melting point was 176 to 181 °C. For the same molecule, in data set [1], the GI50 is 290 nM.

Regarding `COc1cc(Nc2c(C#N)cnc3cc(-c4ccc(CN(CCO)CCO)o4)ccc23)c(Cl)cc1Cl` [Example 76, 7-(5-{[Bis(2-hydroxyethyl)amino]methyl}-2-furyl)-4-(2,4-dichloro-5-methoxyanilino)-3-quinolinecarbonitrile], the melting point lay in the range of 155 to 160 °C. Also, the GI50 in data set [1] was 1100 nM.

`COc1cc(Nc2c(C#N)cnc3cc(-c4ccc(CNCCS(C)(=O)=O)o4)ccc23)c(Cl)cc1Cl` [Example 77, 4-(2,4-Dichloro-5-methoxyanilino)-7-[5-({[2-(methylsulfonyl)ethyl]amino}methyl)-2-furyl]-3-quinolinecarbonitrile] had a melting point of 171 to 174 °C. The GI50 in data set [1] came to 420 nM.

`COc1cc(Nc2c(C#N)cnc3cc(-c4csc(CN5CCOCC5)c4)ccc23)c(Cl)cc1F` [Example 79, 4-{2-Chloro-4-fluoro-5-methoxyanilino)-7-[5-(4-morpholinylmethyl)-3-thienyl]-3-quinolinecarbonitrile] registered a melting point of 185 to 187 °C. The GI50 in data set [1] worked out at 130 nM.

Molecule `COc1cc(Nc2c(C#N)cnc3cc(-c4csc(CN5CCOCC5)c4)ccc23)c(Cl)cc1C` [Example 80, 4-(2-chloro-5-methoxy-4-methylanilino)-7-[5-(4-morpholinylmethyl)-3-thienyl]-3-quinolinecarbonitrile] displayed a melting point of 168 to 170 °C. In data set [1], the GI50 came to 80 nM.

With `COc1cc(Nc2c(C#N)cnc3cc(-c4cc(CN5CCOCC5)c(CN5CCOCC5)s4)c(OC)cc23)c(Cl)cc1Cl` [Example 82, 7-[4,5-Bis(4-morpholinylmethyl)-2-thienyl]-4-(2,4-dichloro-5-methoxyanilino)-6-methoxy-3-quinolinecarbonitrile], the melting point lay within 120 to 124 °C. Besides, in data set [1], the GI50 was 50 nM.

For the molecule `COc1cc(Nc2c(C#N)cnc3cc(-c4ccc(C=O)cc4)ccc23)c(Cl)cc1Cl` [Example 83, 4-(2,4-dichloro-5-methoxyanilino)-7-(4-formylphenyl)-3-quinolinecarbonitrile], the melting point is 248 to 251 °C. Moreover, in data set [1], the GI50 came out at 3900 nM.

Take `COc1cc(Nc2c(C#N)cnc3cc(-c4ccc(CN5CCC[C@@H]5C(N)=O)cc4)ccc23)c(Cl)cc1Cl` [Example 84, (2 R)-1-{4-[3-cyano-4-(2,4-dichloro-5-methoxyanilino)-7-quinolinyl]benzyl}-2-pyrrolidinecarboxamide]: the melting point was in the range of 180 to 182 °C. The GI50 in data set [1] turned out to be 770 nM.
